What was measured:
[1] = biological target: T1, PvSEY1 (Plasmodium vivax SEY1) (Plasmodium vivax, UniProt A5K168); assay: GTPase assay (EnzChek free phosphate) at […] GNF179; also destabilized in lysate thermal shift assay; type: biochemical
T1 construct: Full-length PvSEY1-myc-His from E. coli, Ni-NTA eluate
T1 sequence (A5K168 1-889): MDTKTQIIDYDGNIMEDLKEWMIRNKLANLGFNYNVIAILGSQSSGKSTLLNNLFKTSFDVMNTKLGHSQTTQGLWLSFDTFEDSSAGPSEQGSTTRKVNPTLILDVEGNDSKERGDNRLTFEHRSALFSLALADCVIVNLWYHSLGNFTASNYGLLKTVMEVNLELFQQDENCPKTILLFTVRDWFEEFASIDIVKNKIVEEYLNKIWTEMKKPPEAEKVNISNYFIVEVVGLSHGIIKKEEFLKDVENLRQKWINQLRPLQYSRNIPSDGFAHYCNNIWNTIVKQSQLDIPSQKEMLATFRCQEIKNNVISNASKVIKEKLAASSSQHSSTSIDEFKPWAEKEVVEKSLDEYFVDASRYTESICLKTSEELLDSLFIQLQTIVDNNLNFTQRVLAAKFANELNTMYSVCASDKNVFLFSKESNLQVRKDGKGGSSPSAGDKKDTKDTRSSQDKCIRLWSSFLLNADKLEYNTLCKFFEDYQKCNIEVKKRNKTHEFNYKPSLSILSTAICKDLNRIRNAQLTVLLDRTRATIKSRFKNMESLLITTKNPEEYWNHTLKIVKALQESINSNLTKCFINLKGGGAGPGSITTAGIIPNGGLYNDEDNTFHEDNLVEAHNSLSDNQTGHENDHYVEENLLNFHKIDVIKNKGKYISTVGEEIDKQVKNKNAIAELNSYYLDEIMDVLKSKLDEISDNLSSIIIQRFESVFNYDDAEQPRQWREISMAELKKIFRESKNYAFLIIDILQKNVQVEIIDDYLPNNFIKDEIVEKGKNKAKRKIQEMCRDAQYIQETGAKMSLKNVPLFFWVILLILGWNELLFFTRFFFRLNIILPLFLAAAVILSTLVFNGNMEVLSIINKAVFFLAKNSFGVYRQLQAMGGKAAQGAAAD

HsFLOT1 = biological target: T2, HsFLOT1 (Homo sapiens, UniProt O75955); assay: proteomic affinity chromatography with GNF179 beads, competition with free GNF179 (TMT MS/MS), lysate; type: biochemical
T2 construct: gene FLOT1
T2 sequence (O75955 1-427): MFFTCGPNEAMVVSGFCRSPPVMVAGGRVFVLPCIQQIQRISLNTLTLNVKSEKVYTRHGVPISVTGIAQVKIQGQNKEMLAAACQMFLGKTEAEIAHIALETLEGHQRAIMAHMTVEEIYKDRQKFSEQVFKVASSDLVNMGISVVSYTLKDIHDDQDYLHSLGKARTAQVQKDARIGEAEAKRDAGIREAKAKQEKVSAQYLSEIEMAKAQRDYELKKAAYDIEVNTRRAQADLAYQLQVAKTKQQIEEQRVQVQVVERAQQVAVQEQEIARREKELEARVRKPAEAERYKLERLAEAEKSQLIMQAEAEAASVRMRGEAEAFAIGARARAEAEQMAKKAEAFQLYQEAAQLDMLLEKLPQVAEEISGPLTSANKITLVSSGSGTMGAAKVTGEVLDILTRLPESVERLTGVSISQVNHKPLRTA

PfSTOML = biological target: T3, PfSTOML (Plasmodium falciparum, UniProt O77376); assay: proteomic affinity chromatography with GNF179 beads, competition with free GNF179 (TMT MS/MS), parasite lysate; type: biochemical
T3 construct: gene PF3D7_0318100

HsFLOT2 = biological target: T4, HsFLOT2 (Homo sapiens, UniProt Q14254); assay: proteomic affinity chromatography with GNF179 beads, competition with free GNF179 (TMT MS/MS), lysate; type: biochemical
T4 construct: gene FLOT2
T4 sequence (Q14254 2-428): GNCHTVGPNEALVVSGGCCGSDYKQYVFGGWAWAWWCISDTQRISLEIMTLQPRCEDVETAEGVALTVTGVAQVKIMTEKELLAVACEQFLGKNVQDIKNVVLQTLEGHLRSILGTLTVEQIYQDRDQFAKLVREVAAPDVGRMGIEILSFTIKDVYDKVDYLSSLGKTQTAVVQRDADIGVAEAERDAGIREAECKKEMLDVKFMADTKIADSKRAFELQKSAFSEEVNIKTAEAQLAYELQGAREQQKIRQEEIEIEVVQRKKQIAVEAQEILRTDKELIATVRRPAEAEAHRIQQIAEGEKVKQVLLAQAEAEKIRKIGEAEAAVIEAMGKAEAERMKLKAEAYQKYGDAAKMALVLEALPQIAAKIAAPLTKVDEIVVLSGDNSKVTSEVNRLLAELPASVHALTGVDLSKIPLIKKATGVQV

[2] = biological target: T5, PkSEY1 (Plasmodium knowlesi SEY1) (Plasmodium knowlesi, UniProt B3LAJ9); assay: surface plasmon resonance (Biacore […], NTA chip); type: binding
T5 construct: Full-length, His-tagged (recombinant)
T5 sequence (B3LAJ9 whole entry): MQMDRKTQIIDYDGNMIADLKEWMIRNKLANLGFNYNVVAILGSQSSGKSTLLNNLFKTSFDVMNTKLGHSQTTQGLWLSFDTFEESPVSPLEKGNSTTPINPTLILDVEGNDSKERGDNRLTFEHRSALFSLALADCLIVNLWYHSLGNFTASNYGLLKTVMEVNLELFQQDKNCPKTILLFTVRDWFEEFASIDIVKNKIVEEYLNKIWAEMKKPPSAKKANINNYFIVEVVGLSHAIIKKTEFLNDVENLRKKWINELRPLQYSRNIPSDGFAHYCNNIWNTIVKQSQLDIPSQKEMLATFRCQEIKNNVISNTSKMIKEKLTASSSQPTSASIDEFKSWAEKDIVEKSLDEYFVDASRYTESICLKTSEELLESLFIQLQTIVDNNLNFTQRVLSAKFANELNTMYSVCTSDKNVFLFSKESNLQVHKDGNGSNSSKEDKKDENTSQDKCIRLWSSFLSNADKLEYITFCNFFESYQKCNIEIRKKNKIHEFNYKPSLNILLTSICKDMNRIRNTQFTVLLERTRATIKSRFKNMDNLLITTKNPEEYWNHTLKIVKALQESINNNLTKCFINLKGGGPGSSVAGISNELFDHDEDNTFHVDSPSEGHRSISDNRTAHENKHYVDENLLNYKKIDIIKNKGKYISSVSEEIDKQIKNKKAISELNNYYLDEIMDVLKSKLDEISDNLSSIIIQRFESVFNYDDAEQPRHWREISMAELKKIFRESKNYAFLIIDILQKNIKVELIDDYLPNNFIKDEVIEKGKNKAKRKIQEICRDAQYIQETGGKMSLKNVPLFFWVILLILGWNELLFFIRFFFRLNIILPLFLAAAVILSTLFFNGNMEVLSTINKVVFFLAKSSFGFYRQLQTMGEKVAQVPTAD

T3 sequence (O77376 entry or part of it): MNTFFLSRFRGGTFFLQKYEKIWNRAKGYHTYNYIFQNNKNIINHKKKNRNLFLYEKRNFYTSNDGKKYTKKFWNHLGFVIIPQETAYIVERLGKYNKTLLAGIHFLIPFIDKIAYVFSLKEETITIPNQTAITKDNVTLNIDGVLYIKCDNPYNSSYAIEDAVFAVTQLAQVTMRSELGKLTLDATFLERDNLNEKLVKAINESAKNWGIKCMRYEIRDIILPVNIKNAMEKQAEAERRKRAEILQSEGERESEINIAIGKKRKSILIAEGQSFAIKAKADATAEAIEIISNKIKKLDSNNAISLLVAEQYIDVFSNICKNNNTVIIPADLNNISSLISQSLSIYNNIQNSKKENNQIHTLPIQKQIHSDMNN

Structure (SMILES): CC1(C)c2nc(-c3ccc(F)cc3)c(Nc3ccc(Cl)cc3)n2CCN1C(=O)CN [GNF179]
- GTPase assay (EnzChek free phosphate) at 125 μM GNF179; also destabilized in lys [1]: These results indicate a reduction of PvSEY1 GTPase activity by GNF179.
- Kd (HsFLOT1): 340 nM
- Kd (PfSTOML): 3170 nM
- Kd (HsFLOT2): 390 nM
- Kd [2]: 144000 nM

— article PMC11469372, “Plasmodium SEY1 is a novel druggable target that contributes to imidazolopiperazine mechanism of action” (Research Square, 2024)
